In US5968791A, “Plant lysophosphatidic acid acyltransferases” (Calgene, Inc., priority 1995, dated 1999):

How the values were obtained:
coconut LPAAT = target: T1, coconut LPAAT (Cocos nucifera, UniProt Q42670); assay: LPAAT activity assay, coconut P2 membrane preparation; assay type: biochemical; parameters: white endosperm tissue lining the inside of the endocarp can be dissected and collected; from tissue; host or cells: immature coconut endosperm, P2 membrane fraction; settings: P2 membrane preparation; acyl-CoA donor varied, acceptor 12:0-LPA
T1 sequence (Q42670 1-308): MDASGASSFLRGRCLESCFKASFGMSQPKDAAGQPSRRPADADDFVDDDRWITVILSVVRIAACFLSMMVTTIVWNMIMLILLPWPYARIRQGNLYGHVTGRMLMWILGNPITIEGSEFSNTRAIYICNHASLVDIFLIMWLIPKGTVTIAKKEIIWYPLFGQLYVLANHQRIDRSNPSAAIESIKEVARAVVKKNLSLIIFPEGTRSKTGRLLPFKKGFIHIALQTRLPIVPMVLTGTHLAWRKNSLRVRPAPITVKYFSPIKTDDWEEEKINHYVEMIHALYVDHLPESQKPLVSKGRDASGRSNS
Method: (§1) To assay for LPAAT activity, the sample is incubated with lysophosphatidic acid (LPA) and acyl-coenzyme A (acyl-CoA) substrates in buffered solution. The acyl substituents of the two substrates are chosen to correspond with the specificity of the enzyme being measured. For example, to measure activity of an LPAAT having preference for medium-chain substrates, lauroyl-LPA (lauroyl-lysophosphatidic acid) and lauroyl-CoA may be used, to measure activity of an LPAAT preferring longer-chain acyl groups, oleoyl-LPA and oleoyl-CoA may be used, to measure activity of an LPAAT preferring very-long chain substrate, erucyl-LPA and erucyl-CoA may be used, and so on, depending upon the type of LPAAT to be tested. The acyl group of one substrate is radioactively labeled in order to detect the product formed. In the examples which follow the acyl substituent of the acyl-CoA substrate is radiolabeled with ^14 C in the carboxyl group. LPAAT activity results in transfer of this acyl group from the acyl-CoA "donor" substrate to the LPA "acceptor" substrate, converting the latter into the product, phosphatidic acid (PA). LPAAT activity is measured as the amount of radioactive product formed in a given assay time. The PA product is radioactive as a result of the transferred radiolabeled acyl group at the central carbon atom of the molecule, and the quantity of PA formed may be determined by measuring radioactivity of the PA fraction. For this measurement, the PA is first separated from the acyl-CoA substrate by solvent partitioning, or by thin-layer chromatography (TLC).
(§2) 20 μl of the sample to be assayed for LPAAT activity is mixed with 217.5 μl of an assay ingredient mixture in a 4-ml, screw-cap vial. […] The incubation takes place in a water bath at 30° C., for 20-30 minutes.
(§3) To stop the assay, 0.25 ml of 1M KCl in 0.2M H3 PO4 is added to the vial. At this point, 40 μl BSA (bovine serum albumin, fraction V) at 1 mg/ml are added, followed by 0.75 ml of a solution of 67 μg/ml unlabeled PA (acting as a "carrier" to facilitate partitioning) in chloroform/methanol (2:1, v/v). The chain lengths of the PA acyl groups are chosen to correspond to those used in the assay substrates. Upon thorough mixing of these components the radiolabeled PA product of the LPAAT reaction partitions into the organic phase and away from the unreacted acyl-CoA and LPA. The vial is centrifuged briefly at low speed to facilitate the separation of organic (lower) and aqueous (upper) phases. The aqueous phase is then removed and discarded. The total radioactivity extracted into the organic phase is determined by liquid scintillation counting; a 100 μl sample of the organic phase is transferred to a 20 ml scintillation vial and allowed to dry, and scintillation fluid (3-5 ml) is added to the vial. The radioactivity of the sample, after subtraction of the "minus-enzyme" or "minus-LPA" radioactivities, is taken as an approximate indication of the amount of PA formed in the LPAAT-catalyzed reaction and therefore of LPAAT activity.
A more accurate estimation of the LPAAT activity may be obtained by separating the PA product from these contaminants by TLC. The remaining organic phase is applied to a silica TLC plate. Ascending chromatography is carried out for 50 minutes, using the solvent mixture chloroform/pyridine/88% formic acid (50:30:7, v/v). After the plate has dried, the distribution of radioactivity is visualized and quantitated using an AMBIS radioanalytic imaging system (AMBIS Systems Inc., San Diego, Calif.). From prior application of standard lipid components the Rf of the PA is known. The radioactivity associated with the PA spot is expressed as a percentage of the total radioactivity of the assay sample loaded on the plate. This ratio provides an indication of the proportion of the scintillation counts which represent the PA product, and may be used to correct the counts to obtain the total PA radioactivity formed in the assay. […]

Rapeseed LPAAT = assay: LPAAT activity assay, rapeseed P2 membrane preparation; assay type: biochemical, Brassica napus; settings: acyl-CoA donor varied, acceptor 12:0-LPA
Method: as §1, §2, §3
A more accurate estimation of the LPAAT activity may be obtained by separating the PA product from these contaminants by TLC. The remaining organic phase is applied to a silica TLC plate. […] After the plate has dried, the distribution of radioactivity is visualized and quantitated using an AMBIS radioanalytic imaging system (AMBIS Systems Inc., San Diego, Calif.). From prior application of standard lipid components the Rf of the PA is known. The radioactivity associated with the PA spot is expressed as a percentage of the total radioactivity of the assay sample loaded on the plate. This ratio provides an indication of the proportion of the scintillation counts which represent the PA product, and may be used to correct the counts to obtain the total PA radioactivity formed in the assay.
A P2 membrane homogenate from immature embryos of developing rapeseed (Brassica napus) seeds is prepared essentially as described above, except as noted below.

control rapeseed LPAAT = assay: LPAAT acyl-CoA specificity, control P2 preparation; assay type: biochemical; settings: acyl-CoA donor varied at 5 μM, acceptor 12:0-LPA; 30 minute reaction
Method: (§4) Detailed acyl-CoA chain-length specificity analysis of control P2 preparations and LPAAT-transformed line 5511-5 were determined as described above, using the original 30 minute reaction time. The acyl-CoA substrates for this analysis are present in methanol, and thus the assay also had the following modifications. The first solution placed in the assay vial was the volume of each radiolabeled acyl-CoA required for 5 μM final assay concentration. […] After mixing to redissolve the acyl-CoA off the vial wall, the reaction is started by addition of 25 μl of a 5-fold diluted P2 preparation and continued as before. Acyl-CoA substrates used in this analysis were 8:0, 10:0, 12:0, 14:0, 16:0, 18:0, and 18:1. The acceptor substrate in these assays was 12:0-LPA.

[1] = target: T2, LPAAT of transformant 5511-5 (Cocos nucifera, UniProt Q42670); assay: LPAAT acyl-CoA specificity, P2 preparation of LPAAT-transformed line 5511-5; assay type: biochemical, Rapeseed; settings: acyl-CoA donor varied at 5 μM, acceptor 12:0-LPA; 30 minute reaction
T2 construct: crude P2 membranes, host LPAAT also present
T2 sequence (Q42670 1-308): T1 sequence (Q42670 1-308)
Method: as §4

bay LPAAT = assay: LPAAT activity assay, California bay P2 membrane preparation; assay type: biochemical, Umbellularia californica; settings: P2 membrane preparation; acyl-CoA donor varied, acceptor 12:0-LPA
Method: To assay for LPAAT activity, the sample is incubated with lysophosphatidic acid (LPA) and acyl-coenzyme A (acyl-CoA) substrates in buffered solution. The acyl substituents of the two substrates are chosen to correspond with the specificity of the enzyme being measured. […] The acyl group of one substrate is radioactively labeled in order to detect the product formed. In the examples which follow the acyl substituent of the acyl-CoA substrate is radiolabeled with ^14 C in the carboxyl group. LPAAT activity results in transfer of this acyl group from the acyl-CoA "donor" substrate to the LPA "acceptor" substrate, converting the latter into the product, phosphatidic acid (PA). LPAAT activity is measured as the amount of radioactive product formed in a given assay time. The PA product is radioactive as a result of the transferred radiolabeled acyl group at the central carbon atom of the molecule, and the quantity of PA formed may be determined by measuring radioactivity of the PA fraction. For this measurement, the PA is first separated from the acyl-CoA substrate by solvent partitioning, or by thin-layer chromatography (TLC).

| SMILES | LPAAT Activity from Coconut (coconut LPAAT) | LPAAT Activity from Rapeseed (Rapeseed LPAAT) | Cpm PA Product, Control (control rapeseed LPAAT) [Cpm] | Cpm PA Product, 5511-5 [1] [Cpm] | LPAAT Activity from Bay (bay LPAAT) |
| --- | --- | --- | --- | --- | --- |
| CCCCCCCC(=O)SCCNC(=O)CCNC(=O)[C@H](O)C(C)(C)COP(=O)(O)OP(=O)(O)OC[C@H]1O[C@@H](n2cnc3c(N)ncnc32)[C@H](O)[C@@H]1OP(=O)(O)O [8:0] | 6 pmol PA formed/30 min assay | 2 pmol PA formed/30 min assay | 149 | 454 | 13 pmol PA formed/30 min assay |
| CCCCCCCC/C=C\CCCCCCCC(=O)SCCNC(=O)CCNC(=O)[C@H](O)C(C)(C)COP(=O)(O)OP(=O)(O)OC[C@H]1O[C@@H](n2cnc3c(N)ncnc32)[C@H](O)[C@@H]1OP(=O)(O)O [18:1, oleoyl-CoA] | 9 pmol PA formed/30 min assay | 218 pmol PA formed/30 min assay | 7946 | 8430 | 5 pmol PA formed/30 min assay |
| CCCCCCCCCCCCCC(=O)SCCNC(=O)CCNC(=O)[C@H](O)C(C)(C)COP(=O)(O)OP(=O)(O)OC[C@H]1O[C@@H](n2cnc3c(N)ncnc32)[C@H](O)[C@@H]1OP(=O)(O)O [14:0] | 61 pmol PA formed/30 min assay | 16 pmol PA formed/30 min assay | 1544 | 5080 | 5 pmol PA formed/30 min assay |
| CCCCCCCCCC(=O)SCCNC(=O)CCNC(=O)[C@H](O)C(C)(C)COP(=O)(O)OP(=O)(O)OC[C@H]1O[C@@H](n2cnc3c(N)ncnc32)[C@H](O)[C@@H]1OP(=O)(O)O [10:0] | 43 pmol PA formed/30 min assay | 12 pmol PA formed/30 min assay | 831 | 5648 | 10 pmol PA formed/30 min assay |
| CCCCCCCCCCCC(=O)SCCNC(=O)CCNC(=O)[C@H](O)C(C)(C)COP(=O)(O)OP(=O)(O)OC[C@H]1O[C@@H](n2cnc3c(N)ncnc32)[C@H](O)[C@@H]1OP(=O)(O)O [12:0, lauroyl-CoA] | 238 pmol PA formed/30 min assay | 79 pmol PA formed/30 min assay | 1758 | 9337 | 14 pmol PA formed/30 min assay |
| CCCCCCCCCCCCCCCC(=O)SCCNC(=O)CCNC(=O)[C@H](O)C(C)(C)COP(=O)(O)OP(=O)(O)OC[C@H]1O[C@@H](n2cnc3c(N)ncnc32)[C@H](O)[C@@H]1OP(=O)(O)O [16:0] | 21 pmol PA formed/30 min assay | 27 pmol PA formed/30 min assay | 3034 | 4569 | 6 pmol PA formed/30 min assay |
